ChEMBL document CHEMBL4177767, “Discovery of N2-(4-Amino-cyclohexyl)-9-cyclopentyl- N6-(4-morpholin-4-ylmethyl-phenyl)- 9H-purine-2,6-diamine as a Potent FLT3 Kinase Inhibitor for Acute Myeloid Leukemia with FLT3 Mutations” (J Med Chem, 2018)
Calls of active or inactive are those of the source. The calls are words filed in the database; no cut-off is given here.

Tests used:
[1] = system: MV4-11; experiment: Cell cycle arrest in human MV4-11 cells assessed as accumulation at sub-G1 phase at 0.01 nM after 24 hrs by propidium iodide staining-based flow cytometric method (reference value: 9.2%); assay type: functional
[2] = system: Rattus norvegicus; experiment: Toxicity in Wistar rat assessed as pathological macroscopic changes at 200 mg/kg, po after 15 days; assay type: organism-based; settings: in vivo, 360 h
[3] = system: Rattus norvegicus; experiment: Toxicity in Wistar rat assessed as clinical signs of intoxication at 200 mg/kg, po measured over 15 days; assay type: organism-based; settings: in vivo, 360 h
[4] = target: Platelet-derived growth factor receptor beta (Homo sapiens) (UniProt P09619); settings: 10 nM
Description: Inhibition of human N-terminal GST-tagged PDGFRbeta cytoplasmic domain expressed in baculovirus expression system at 10 nM relative to control

[5] = target: Serine/threonine-protein kinase SIK2 (Homo sapiens) (UniProt Q9H0K1); settings: 10 nM
Description: Inhibition of full length human N-terminal GST-tagged QIK expressed in baculovirus expression system at 10 nM relative to control

[6] = target: Tyrosine-protein kinase Yes (Homo sapiens) (UniProt P07947); settings: 10 nM
Description: Inhibition of human full length N-terminal GST-tagged Yes expressed in baculovirus expression system at 10 nM relative to control

[7] = system: HCC827; experiment: cells; settings: Homo sapiens, HCC827, 72 h
[8] = system: Receptor-type tyrosine-protein kinase FLT3 (Homo sapiens), P36888 [UNDEFINED MUTATION]; settings: MV4-11, at 0.01 to 100 nM
Description: Inhibition of FLT3 ITD mutant in human MV4-11 cells assessed as decrease in ERK1/2 phosphorylation at T202/Y204 at 0.01 to 100 nM after 1 hr by immunoblot analysis

[9] = species: Mus musculus; experiment: animal or person; settings: MV4-11, ip, 2 h, read-out: INH
[10] = system: MV4-11; experiment: Cell cycle arrest in human MV4-11 cells assessed as accumulation at S phase at 0.1 nM after 24 hrs by propidium iodide staining-based flow cytometric method (reference value: 28.1%); assay type: functional
[11] = system: MV4-11; experiment: Cell cycle arrest in human MV4-11 cells assessed as accumulation at G1 phase at 0.1 nM after 24 hrs by propidium iodide staining-based flow cytometric method (reference value: 56%); assay type: functional
[12] = system: MV4-11; experiment: Cell cycle arrest in human MV4-11 cells assessed as accumulation at G2/M phase at 0.1 nM after 24 hrs by propidium iodide staining-based flow cytometric method (reference value: 15.9%); assay type: functional
[13] = system: Receptor-type tyrosine-protein kinase FLT3 (Homo sapiens), P36888 [UNDEFINED MUTATION]
Description: Inhibition of FLT3 ITD mutant (unknown origin) transfected in mouse BA/F3 cells assessed as growth inhibition after 72 hrs by calcein AM dye-based fluorescence assay

[14] = system: MV4-11; experiment: Cell cycle arrest in human MV4-11 cells assessed as accumulation at G1 phase at 1 nM after 24 hrs by propidium iodide staining-based flow cytometric method (reference value: 56%); assay type: functional
[15] = system: Rattus norvegicus; experiment: Toxicity in Wistar rat assessed as mortality at 100 mg/kg, iv measured over 15 days; assay type: organism-based; settings: in vivo, 360 h
[16] = system: MV4-11; experiment: Cell cycle arrest in human MV4-11 cells assessed as accumulation at G2/M phase at 10 nM after 24 hrs by propidium iodide staining-based flow cytometric method (reference value: 15.9%); assay type: functional
[17] = system: Receptor-type tyrosine-protein kinase FLT3 (Homo sapiens), P36888 [UNDEFINED MUTATION]; settings: MV4-11, at 0.01 to 100 nM; remark: listed apart in the source
Description: Inhibition of FLT3 ITD mutant in human MV4-11 cells assessed as decrease in AKT phosphorylation at S473 at 0.01 to 100 nM after 1 hr by immunoblot analysis

[18] = system: Mast/stem cell growth factor receptor Kit (Homo sapiens), P10721 [D816V]; settings: 10 nM
Description: Inhibition of human N-terminal GST-tagged KIT D816V mutant cytoplasmic domain expressed in baculovirus expression system at 10 nM relative to control

[19] = system: MV4-11; experiment: Cell cycle arrest in human MV4-11 cells assessed as accumulation at G1 phase at 0.01 nM after 24 hrs by propidium iodide staining-based flow cytometric method (reference value: 56%); assay type: functional
[20] = target: Activated CDC42 kinase 1 (Homo sapiens) (UniProt Q07912); settings: 10 nM
Description: Inhibition of human N-terminal GST-tagged ACK catalytic domain expressed in baculovirus expression system at 10 nM relative to control

[21] = system: MV4-11; experiment: Cell cycle arrest in human MV4-11 cells assessed as accumulation at G1 phase at 100 nM after 24 hrs by propidium iodide staining-based flow cytometric method (reference value: 56%); assay type: functional
[22] = target: Dual specificity protein kinase CLK1 (Homo sapiens) (UniProt P49759); settings: 10 nM
Description: Inhibition of human N-terminal GST-tagged CLK1 catalytic domain expressed in baculovirus expression system at 10 nM relative to control

[23] = system: MOLM-13; experiment: cells; settings: Homo sapiens, MOLM-13, 72 h
[24] = target: T1, Receptor-type tyrosine-protein kinase FLT3 (Homo sapiens, UniProt P36888); experiment: biochemical; assay type: cell-based, Sf9
T1 sequence (P36888 whole entry): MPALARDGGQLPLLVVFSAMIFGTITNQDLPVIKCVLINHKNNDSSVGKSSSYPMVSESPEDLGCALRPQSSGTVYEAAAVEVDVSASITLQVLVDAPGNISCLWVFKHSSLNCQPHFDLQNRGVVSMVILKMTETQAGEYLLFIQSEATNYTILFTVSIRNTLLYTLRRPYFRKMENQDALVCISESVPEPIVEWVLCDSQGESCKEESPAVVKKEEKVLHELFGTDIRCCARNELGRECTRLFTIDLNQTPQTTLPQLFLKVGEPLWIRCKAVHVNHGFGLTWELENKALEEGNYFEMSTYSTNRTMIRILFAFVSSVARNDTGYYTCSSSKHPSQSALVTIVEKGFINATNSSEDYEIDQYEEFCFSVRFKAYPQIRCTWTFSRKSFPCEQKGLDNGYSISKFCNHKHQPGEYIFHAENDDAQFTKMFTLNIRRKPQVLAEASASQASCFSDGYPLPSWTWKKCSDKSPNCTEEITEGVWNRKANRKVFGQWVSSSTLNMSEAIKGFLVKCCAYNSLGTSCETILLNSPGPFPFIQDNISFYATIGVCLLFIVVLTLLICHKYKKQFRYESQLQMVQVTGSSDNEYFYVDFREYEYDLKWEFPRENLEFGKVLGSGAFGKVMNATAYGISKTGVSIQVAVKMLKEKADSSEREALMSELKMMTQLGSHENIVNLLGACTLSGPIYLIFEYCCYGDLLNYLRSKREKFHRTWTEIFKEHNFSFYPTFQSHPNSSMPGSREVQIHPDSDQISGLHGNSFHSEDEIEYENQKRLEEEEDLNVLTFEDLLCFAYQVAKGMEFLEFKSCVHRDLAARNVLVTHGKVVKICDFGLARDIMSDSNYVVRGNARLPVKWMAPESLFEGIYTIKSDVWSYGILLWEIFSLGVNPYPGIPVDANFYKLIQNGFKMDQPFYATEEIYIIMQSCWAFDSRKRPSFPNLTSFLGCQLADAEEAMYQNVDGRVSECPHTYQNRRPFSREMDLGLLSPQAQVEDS
Description: Inhibition of N-terminal GST/His6-fused recombinant wild type human FLT3 (R571 to S993 residues) expressed in Sf9 insect cells using poly (Ala,Glu,Lys,Tyr) 6:2:5:1 hydrobromide as substrate in presence of [gamma-33P]ATP

[25] = system: K562; experiment: Induction of apoptosis in human K562 cells assessed as increase in caspase-3/7 activity using Ac-DEVD-AMC substrate after 24 hrs by fluorescence assay; assay type: functional, cell-based
[26] = target: Serine/threonine-protein kinase SIK1 (Homo sapiens) (UniProt P57059); settings: 10 nM
Description: Inhibition of full length human N-terminal GST-tagged SIK expressed in baculovirus expression system at 10 nM relative to control

[27] = system: MV4-11; experiment: Induction of apoptosis in human MV4-11 cells assessed as increase in PARP1 cleavage at 10 to 100 nM after 24 hrs by immunoblot method; assay type: functional, cell-based
[28] = in vitro; settings: human, HUVEC
[29] = system: MV4-11; experiment: Cell cycle arrest in human MV4-11 cells assessed as accumulation at G1 phase at 10 nM after 24 hrs by propidium iodide staining-based flow cytometric method (reference value: 56%); assay type: functional

Sequence of Activated CDC42 kinase 1 (Homo sapiens) (Q07912 whole entry, looked up): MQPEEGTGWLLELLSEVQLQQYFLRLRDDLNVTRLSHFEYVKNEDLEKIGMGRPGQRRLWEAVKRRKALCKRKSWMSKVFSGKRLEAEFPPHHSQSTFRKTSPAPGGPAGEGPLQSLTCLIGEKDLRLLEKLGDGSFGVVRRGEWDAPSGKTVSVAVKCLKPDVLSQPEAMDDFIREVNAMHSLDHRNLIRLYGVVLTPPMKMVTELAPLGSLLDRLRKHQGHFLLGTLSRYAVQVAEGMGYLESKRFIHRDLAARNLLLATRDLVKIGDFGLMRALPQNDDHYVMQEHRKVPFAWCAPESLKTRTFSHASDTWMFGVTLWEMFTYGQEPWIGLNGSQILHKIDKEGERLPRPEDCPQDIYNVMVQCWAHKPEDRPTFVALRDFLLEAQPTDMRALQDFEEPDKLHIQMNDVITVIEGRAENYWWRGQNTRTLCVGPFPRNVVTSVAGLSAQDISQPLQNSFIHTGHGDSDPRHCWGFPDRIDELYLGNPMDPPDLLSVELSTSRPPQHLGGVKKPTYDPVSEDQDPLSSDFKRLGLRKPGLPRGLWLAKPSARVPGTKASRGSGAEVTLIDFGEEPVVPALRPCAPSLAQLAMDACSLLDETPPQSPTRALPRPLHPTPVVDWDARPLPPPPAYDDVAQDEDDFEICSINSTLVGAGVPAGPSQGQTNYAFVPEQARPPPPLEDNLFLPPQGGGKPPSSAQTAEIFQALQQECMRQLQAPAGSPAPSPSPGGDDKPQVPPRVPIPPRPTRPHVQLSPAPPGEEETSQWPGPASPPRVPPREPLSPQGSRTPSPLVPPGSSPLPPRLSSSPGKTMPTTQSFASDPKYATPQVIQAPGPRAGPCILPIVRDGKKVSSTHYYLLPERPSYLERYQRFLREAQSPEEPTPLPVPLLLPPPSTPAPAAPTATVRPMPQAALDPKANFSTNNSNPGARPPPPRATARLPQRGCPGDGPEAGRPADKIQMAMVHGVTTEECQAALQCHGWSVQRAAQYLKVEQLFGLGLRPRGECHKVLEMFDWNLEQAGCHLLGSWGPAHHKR
Sequence of Tyrosine-protein kinase Yes (Homo sapiens) (P07947 2-543 limits assumed): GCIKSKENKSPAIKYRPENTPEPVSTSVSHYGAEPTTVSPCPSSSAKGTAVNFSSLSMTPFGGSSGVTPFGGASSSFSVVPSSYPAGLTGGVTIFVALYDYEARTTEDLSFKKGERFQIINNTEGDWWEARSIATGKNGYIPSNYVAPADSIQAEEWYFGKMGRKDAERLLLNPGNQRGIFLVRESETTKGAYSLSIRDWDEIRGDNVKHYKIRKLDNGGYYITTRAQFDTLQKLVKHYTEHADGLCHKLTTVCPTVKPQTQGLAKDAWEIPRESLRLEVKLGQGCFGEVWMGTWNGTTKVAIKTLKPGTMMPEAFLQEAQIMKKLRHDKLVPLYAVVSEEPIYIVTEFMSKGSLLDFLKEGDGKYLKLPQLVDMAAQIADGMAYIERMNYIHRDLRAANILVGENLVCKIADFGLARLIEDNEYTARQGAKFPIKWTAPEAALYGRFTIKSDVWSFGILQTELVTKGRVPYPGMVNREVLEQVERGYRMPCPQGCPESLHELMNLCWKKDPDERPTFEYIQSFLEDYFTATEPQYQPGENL
Sequence of Mast/stem cell growth factor receptor Kit (Homo sapiens), P10721 [D816V] (P10721 whole entry D816V): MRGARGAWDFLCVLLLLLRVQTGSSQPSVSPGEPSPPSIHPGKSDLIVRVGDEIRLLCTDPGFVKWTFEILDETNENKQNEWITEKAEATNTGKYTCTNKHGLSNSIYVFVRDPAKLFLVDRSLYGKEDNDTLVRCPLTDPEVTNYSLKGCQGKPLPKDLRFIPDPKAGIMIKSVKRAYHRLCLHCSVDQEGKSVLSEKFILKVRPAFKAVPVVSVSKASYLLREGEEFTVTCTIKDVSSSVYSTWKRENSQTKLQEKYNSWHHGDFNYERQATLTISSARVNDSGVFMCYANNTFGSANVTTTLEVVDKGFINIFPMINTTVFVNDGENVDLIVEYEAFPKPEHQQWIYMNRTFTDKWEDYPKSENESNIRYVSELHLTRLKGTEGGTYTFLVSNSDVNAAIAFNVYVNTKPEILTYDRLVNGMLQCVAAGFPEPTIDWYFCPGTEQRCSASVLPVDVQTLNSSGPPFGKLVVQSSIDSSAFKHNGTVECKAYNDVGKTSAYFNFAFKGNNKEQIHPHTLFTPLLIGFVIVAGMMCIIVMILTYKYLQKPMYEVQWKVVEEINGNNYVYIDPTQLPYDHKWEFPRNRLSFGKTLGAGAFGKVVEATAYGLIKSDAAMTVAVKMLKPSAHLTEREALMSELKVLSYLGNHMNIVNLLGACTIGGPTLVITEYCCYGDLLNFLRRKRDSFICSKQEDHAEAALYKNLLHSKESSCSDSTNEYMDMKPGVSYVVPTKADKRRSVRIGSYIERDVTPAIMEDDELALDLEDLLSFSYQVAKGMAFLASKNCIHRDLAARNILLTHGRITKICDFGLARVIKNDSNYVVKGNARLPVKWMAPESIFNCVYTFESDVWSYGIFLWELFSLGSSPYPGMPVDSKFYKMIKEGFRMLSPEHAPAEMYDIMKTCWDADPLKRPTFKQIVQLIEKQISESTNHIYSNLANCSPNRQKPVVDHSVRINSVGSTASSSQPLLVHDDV
Sequence of Platelet-derived growth factor receptor beta (Homo sapiens) (P09619 whole entry): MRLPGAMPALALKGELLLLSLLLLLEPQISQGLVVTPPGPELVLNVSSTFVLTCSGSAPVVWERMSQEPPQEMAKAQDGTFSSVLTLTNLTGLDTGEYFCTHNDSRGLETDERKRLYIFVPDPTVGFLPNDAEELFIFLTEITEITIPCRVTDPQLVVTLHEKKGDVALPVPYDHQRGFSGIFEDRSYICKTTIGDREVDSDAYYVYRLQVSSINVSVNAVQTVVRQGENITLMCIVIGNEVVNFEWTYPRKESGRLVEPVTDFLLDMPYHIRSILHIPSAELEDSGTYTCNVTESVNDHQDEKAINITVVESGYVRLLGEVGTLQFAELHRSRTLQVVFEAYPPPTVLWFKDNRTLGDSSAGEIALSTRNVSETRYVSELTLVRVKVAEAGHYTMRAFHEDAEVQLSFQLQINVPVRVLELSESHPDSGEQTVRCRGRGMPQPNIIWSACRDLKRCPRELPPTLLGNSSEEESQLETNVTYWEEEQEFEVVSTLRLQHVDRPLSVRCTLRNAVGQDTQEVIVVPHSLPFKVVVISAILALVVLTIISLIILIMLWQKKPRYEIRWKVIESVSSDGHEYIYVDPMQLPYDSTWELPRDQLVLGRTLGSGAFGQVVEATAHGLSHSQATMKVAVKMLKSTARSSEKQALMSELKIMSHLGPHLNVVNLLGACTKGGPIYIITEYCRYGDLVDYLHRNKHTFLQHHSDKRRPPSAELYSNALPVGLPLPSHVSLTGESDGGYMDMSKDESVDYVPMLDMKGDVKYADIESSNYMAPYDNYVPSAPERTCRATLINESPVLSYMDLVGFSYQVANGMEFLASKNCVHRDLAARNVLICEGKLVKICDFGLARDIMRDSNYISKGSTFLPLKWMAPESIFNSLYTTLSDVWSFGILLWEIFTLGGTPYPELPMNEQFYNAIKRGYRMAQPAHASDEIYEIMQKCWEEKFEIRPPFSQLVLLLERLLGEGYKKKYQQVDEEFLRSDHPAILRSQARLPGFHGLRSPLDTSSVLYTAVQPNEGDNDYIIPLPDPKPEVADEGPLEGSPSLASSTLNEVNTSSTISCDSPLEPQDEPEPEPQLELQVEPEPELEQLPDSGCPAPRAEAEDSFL
Sequence of Dual specificity protein kinase CLK1 (Homo sapiens) (P49759 whole entry, looked up): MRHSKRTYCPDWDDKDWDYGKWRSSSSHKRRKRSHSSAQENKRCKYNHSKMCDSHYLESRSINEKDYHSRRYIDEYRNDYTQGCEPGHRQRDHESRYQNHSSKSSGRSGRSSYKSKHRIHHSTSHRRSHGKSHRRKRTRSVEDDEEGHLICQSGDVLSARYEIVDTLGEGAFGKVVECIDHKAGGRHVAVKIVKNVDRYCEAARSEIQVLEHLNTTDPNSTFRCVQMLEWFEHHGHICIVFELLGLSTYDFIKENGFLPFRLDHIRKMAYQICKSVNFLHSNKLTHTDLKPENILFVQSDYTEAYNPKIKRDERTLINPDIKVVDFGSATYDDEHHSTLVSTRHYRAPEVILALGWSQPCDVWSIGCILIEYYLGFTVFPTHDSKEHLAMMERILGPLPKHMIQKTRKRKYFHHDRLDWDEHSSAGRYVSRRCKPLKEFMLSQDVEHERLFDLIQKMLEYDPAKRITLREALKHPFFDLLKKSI
Sequence of Serine/threonine-protein kinase SIK1 (Homo sapiens) (P57059 whole entry): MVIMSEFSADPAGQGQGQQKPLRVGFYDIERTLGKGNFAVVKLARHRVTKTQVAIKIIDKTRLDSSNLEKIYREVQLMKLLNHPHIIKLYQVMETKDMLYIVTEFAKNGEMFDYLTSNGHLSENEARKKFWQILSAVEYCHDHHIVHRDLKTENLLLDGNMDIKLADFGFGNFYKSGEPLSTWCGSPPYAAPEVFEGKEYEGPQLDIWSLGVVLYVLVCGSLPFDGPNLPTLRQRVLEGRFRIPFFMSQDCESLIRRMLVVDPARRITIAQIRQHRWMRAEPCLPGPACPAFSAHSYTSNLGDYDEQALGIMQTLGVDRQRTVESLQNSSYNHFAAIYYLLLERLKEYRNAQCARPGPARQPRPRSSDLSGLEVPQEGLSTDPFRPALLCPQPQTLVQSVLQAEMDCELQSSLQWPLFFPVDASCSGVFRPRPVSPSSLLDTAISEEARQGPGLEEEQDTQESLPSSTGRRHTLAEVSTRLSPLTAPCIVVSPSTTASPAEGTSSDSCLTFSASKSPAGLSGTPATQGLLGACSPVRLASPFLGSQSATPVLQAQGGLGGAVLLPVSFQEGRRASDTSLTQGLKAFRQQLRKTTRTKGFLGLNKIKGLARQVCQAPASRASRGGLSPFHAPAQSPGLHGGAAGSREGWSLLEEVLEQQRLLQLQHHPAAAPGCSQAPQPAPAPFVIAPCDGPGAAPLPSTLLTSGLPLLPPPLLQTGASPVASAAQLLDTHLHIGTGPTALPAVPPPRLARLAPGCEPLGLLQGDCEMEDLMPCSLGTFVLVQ

SMILES: N[C@H]1CC[C@H](Nc2nc(Nc3ccc(CN4CCOCC4)cc3)c3ncn(C4CCCC4)c3n2)CC1
- Activity [1]: 9.9%
- Activity [2]: Non-Toxic
- Activity [3]: Non-Toxic
- inhibition [4]: > 90%
- inhibition [5]: > 90%
- inhibition [6]: > 90%
- GI50 [7]: 327 nM
- inhibition [8]: Active
- inhibition in vivo at 10 mg/kg [9]: 95%
- Activity [10]: 28%
- Activity [11]: 59.7%
- Activity [12]: 12.3%
- GI50 [13]: 34 nM
- Activity [14]: 90.3%
- Activity [15]: Non-Toxic
- Activity [16]: 0.8%
- inhibition [17]: Active
- inhibition [18]: > 90%
- Activity [19]: 5.6%
- inhibition [20]: > 90%
- Activity [21]: 95%
- inhibition [22]: > 90%
- GI50 [23]: 1 nM
- IC50 [24]: 13 nM
- Activity [25]: inactive
- inhibition [26]: > 90%
- Activity [27]: Active
- GI50 at 72 h [28]: 5870 nM
- Activity [29]: 96.5%
